# Results published in US9725433B2, “Compounds as tyrosine kinase modulators” (Allergan, Inc., priority 2009, dated 2017).
# Biological target: PDGFβ (Homo sapiens (Human), UniProt P09619)
# Assay: PDGF stimulated Ca2+ signal in vitro (FLIPR, NHDF-Ad); PDGFβ cellular
# Type: cell-based
# Conditions: PDGF 10 ng/mL, amide linker compounds
# Method: Automated FLIPR (Fluorometric Imaging Plate Reader) technology was used to screen for inhibitors of PDGF induced increases in intracellular calcium levels in fluorescent dye loaded […] cells. NHDF-Ad (Normal human dermal fibroblasts) (Lonza) were seeded in 384-well fibronectin coated black-walled plates overnight at 37° C./5% CO2. […] Cells were washed 4 times (ELx405-CW, Bio-Tek) to remove extracellular dye.
# Chain of PDGFβ (P09619 33-1106): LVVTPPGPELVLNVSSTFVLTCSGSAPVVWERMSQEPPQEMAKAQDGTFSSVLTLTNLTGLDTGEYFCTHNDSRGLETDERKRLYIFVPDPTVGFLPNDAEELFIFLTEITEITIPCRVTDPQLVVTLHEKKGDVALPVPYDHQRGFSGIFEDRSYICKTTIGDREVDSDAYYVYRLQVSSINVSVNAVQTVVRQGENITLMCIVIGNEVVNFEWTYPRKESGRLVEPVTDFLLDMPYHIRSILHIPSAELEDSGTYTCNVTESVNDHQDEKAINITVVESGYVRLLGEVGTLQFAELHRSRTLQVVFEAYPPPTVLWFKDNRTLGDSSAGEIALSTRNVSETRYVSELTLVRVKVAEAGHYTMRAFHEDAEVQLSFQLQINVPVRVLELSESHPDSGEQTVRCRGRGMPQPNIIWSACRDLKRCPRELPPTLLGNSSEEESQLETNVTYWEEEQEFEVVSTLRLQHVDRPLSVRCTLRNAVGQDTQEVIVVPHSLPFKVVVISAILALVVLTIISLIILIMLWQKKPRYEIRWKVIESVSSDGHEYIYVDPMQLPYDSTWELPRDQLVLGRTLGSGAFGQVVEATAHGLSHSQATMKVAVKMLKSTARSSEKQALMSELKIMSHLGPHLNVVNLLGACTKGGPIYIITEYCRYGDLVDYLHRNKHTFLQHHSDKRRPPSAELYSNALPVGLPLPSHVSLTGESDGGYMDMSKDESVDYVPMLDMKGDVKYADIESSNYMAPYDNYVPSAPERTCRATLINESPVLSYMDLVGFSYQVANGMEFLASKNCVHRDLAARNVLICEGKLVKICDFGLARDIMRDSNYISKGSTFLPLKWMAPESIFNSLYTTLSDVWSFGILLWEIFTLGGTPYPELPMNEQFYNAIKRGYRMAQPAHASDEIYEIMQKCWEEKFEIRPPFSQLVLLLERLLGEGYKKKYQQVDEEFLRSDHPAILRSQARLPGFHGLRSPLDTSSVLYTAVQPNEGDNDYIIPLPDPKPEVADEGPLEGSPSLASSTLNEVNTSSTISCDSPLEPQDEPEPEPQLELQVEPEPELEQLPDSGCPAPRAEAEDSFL
substance,measurement,value
"2,3-dihydroxypropyl 5-(4-{3-[(3-methyl-2-furoyl)amino]phenoxy}pyridin-2-yl)-1H-pyrrole-3-carboxylate [Example 21]",IC50,39 nM
